Measurements taken from patent US7416876B2, “N-carbobenzyloxy (N-CBZ)-deprotecting enzyme” (Bristol-Meyers Squibb Company, priority 2001, dated 2008).

B1: CBZ-deprotecting enzyme: enzyme purified from Sphingomonas paucimobilis ATCC 202027 that removes CBZ from protected amines and alcohols; SEQ ID NO:2 (protein, listed as Sphingomonas paucimobilis)
chain: MVQPTPTPQSELPGLIARDMEGLMTLYRDLHANPELSLQEVNTAAKLAKRLKAMKFDVTEKVGGTGVVAVMKNGSGPVLLIRADMDGLPVVEQTGLDFASKVRTKTPEGVETGVMHACGHDTHMTAFIETAKLLSSQKDKWKGTLVMILQPAEEVGKGARDMLEDGLYTRFPRPTHAIAFHDAANLQAGVVGYTPGYALANVDSVDIVVKGLGGHGAYPQTTRDPIVLGSRIVTSLQTLVSREQDPQDPAVVTVGSFQAGAKHNIIPDQALLLLTVRSYSDETRAKLIKGIERIARGEAIAAGVPDDKMPVVSVKDEFTPSTYNPPEFAEQMGALLKGHFAEGRVVKTPAVMGGEDFGRFYRADKSINSFIFWVGGVPADKMAAAQAGQITLPSLHSPFWAPEADKVIATASEAMTVLAMDILKKD

Tests used:
[1] = system: Sphingomonas paucimobilis; assay: Biotransformation (CBZ deprotection) using whole cells; format: cell-based; conditions: whole cells grown in medium B with 25 mg substrate, 28° C., 48 hours, HPLC
Procedure: In this process, the Sphingomonas paucimobilis was grown in 25 mL of medium B containing 25 mg of substrate (Compound A or CBZ-L-Phenylalanine) in a 250-mL flask. The flask was incubated at 28° C. and 250 rpm on a shaker. After 48 hours of biotransformation, the cells were removed by centrifugation. The supernatant containing the product [4S-(4α,7α,10aβ)]-Octahydro-5-oxo-4-amino-7H-pyrido-[2,1-b] [1,3]thiazepine-7-carboxylic acid, methyl ester (Compound B) or L-Phenylalanine was analyzed by HPLC.
(§1) HPLC analysis was performed using a Hewlett-Packard (HP) 1090 instrument with a Vydac C-18 reverse phase column. The mobile phase solvent A containing 0.1% trifluoroacetic acid (TFA) in water and solvent B containing 0.1% TFA in 70% acetonitrile: 30% water. The following gradient of solvent A and B was used for the separation of substrates and products:
(§2) 0-15 min: 50% B,15-25 min: 100% B, 25-26 min: 0% B, and 26-30 min: 0% B. The flow rate was 1 mL/min. The column temperature was ambient, and the detection wavelength was at 215 nm. Under these conditions, the retention times for Compound A, Compound B, CBZ-L-Phenylalanine and L-Phenylalanine are 15.48 min., 7.28 min., 16.99 min. and 7.35 min., respectively. All other CBZ-containing compounds were also analyzed using these conditions.

[2] = system: CBZ-deprotecting enzyme (cell extracts of Sphingomonas paucimobilis ATCC 202027); assay: CBZ-deprotection using cell extract; format: biochemical; conditions: 42° C., 18-20 hours, HPLC
Procedure: as §1, §2
Preparation of cell extracts were carried out at 4-7° C. Cells were washed with 50 mM potassium phosphate buffer, pH 7.0, and the washed cells (100 g) were suspended in 500 mL of buffer A (50 mM phosphate buffer, pH 7.0 containing 10% glycerol, and 2 mM DTT). To the cell suspensions, 1 mM phenylmethylsulfonyl fluoride (PMSF) solution in isopropanol was added. Cell suspensions (20% W/V, wet cells) were passed through a Microfluidizer (Microfluidics, Inc) at 12,000 psi (two passages) and disintegrated cells were centrifuged at 25,000×g for 30 min at 4° C. The supernatant solution obtained after centrifugation is referred to as cell extract.
The cell extracts was used in deprotecting the CBZ-group from various compounds. It was useful in deprotecting CBZ-groups in various processes. Various D and L-CBZ-protected amino acids were incubated with the cell extract at 42° C. for 18 -20 hours. The reactions were stopped by addition of 2 volumes of 50% acetonitrile containing 0.4% trifluro acetic acid (TFA). The results shown in table 2 indicate that the enzyme is specific in hydrolyzing the CBZ-group from CBZ-protected L-amino acids.

[3] = system: CBZ-deprotecting enzyme; assay: Deprotection of CBZ-containing compounds with purified CBZ-deprotecting enzyme; format: biochemical, Sphingomonas paucimobilis; conditions: for % Conversion: purified enzyme
Procedure: Compound A or CBZ-phenylalanine at 0.5mg was incubated with 0.4 mL of cell extract/fractions in 50 mM phosphate buffer, pH 7 at 45° C. for 18 hours. The reaction is stopped by the addition 1 ml of 50% acetonitrile containing 0.4% TFA. The samples were filtered and analyzed by HPLC for product and starting material. All the purification steps were carried out at room temperature. The purification of the enzyme was carried out using CBZ-L-phenylalanine as the substrate. The cell extract, prepared as above, was batch adsorbed with DEAE-cellulose (pre-equilibrated with buffer A) for 2 hours. The follow-through, which contained the active enzyme, was precipitated with ammonium sulfate (516 g/L) with constant stirring for 2 hours. The resulting precipitate obtained by centrifugation (15,000 rpm at 4° C.) was solubilized in buffer A containing 1M ammonium sulfate, loaded on to phenylsepharose (20 mL column which was pre-equlibriaiated with buffer A containing 1M ammonium sulfate). The column was sequentially washed with the buffer A containing 1M ammonium sulfate, 0.5M ammonium sulfate and 0.2M ammonium sulfate. Finally, the enzyme was eluted with buffer A. The fractions containing active enzyme were pooled (30 mL) and concentrated with Amicon PM-10 membrane (8 mL). The enzyme was then loaded on to S-200 gel-filtration column (400 mL column). The enzyme was eluted with buffer A with a flow rate of 0.8 mL/min. With these steps the enzyme was purified more than 150-fold with a specific activity of 13.9 units/mg protein (table 3). The unit is defined as μmole of product formed/min/mg of protein. The enzyme is a […] protein with a molecular weight of 154,000 daltons with a subunit molecular weight of 45,000 daltons, as determined by SDS-PAGE. The purified enzyme prepared as described in this section has been used to deprotect CBZ-containing compounds as shown in table 4.

[4] = system: recombinant N-CBZ-deprotecting enzyme; assay: Deprotection with recombinant enzyme (cell extract from E. coli BL21 (DE3)(pBMS2000-cbz)); format: biochemical, Sphingomonas paucimobilis; conditions: 0.5 mg substrate, 0.5 ml cell extract, 28° C., 1 hr, HPLC
Procedure: The reaction contained 0.5 mg of CBZ-L-phe and 0.5 ml of cell extract from E. coli BL21 (DE3)(pBMS2000-cbz) that expressed the deprotecting enzyme. Preparation of cell extract was as follows: 2 g of recombinant cells were suspended in 10 mL buffer A (50 mM phosphate buffer, pH 7.5, 1 mM EDTA), sonicated for 2 minutes (20 seconds pulse on and 30 seconds pulse off) using a model 550 Sonic Dismembrator from Misonix Inc., Farmingdale, N.Y. The disintegrated cells were centrifuged for 15 min at 8000 rpm at 4° C. and the resulting supernatant, referred to as a cell extract, was used for these studies. The reactions were carried out in a culture tube at 28° C. After 1 hr, samples were quenched with 1 ml of acetonitrile and analyzed by HPLC (described earlier).

Molecule	% Conversion [2] [%]	further results
COC(=O)[C@@H]1CCC[C@@H]2SCC[C@H](NC(=O)OCc3ccccc3)C(=O)N21 [Compound A, [4S-(4α,7α, 10aβ)]-Octahydro-5-oxo-4-[[(phenylmethoxy)carbonyl]amino]-7H-pyrido-[2,1-b] [1,3]thiazepine-7-carboxylic acid, methyl ester]	95	% Conversion [1]: 100%; % Conversion [3]: 100%
O=C(NCCCC[C@H](NC(=O)OCc1ccccc1)C(=O)O)OCc1ccccc1 [N-α-ε-(CBZ)2-L-Lysine]	24	–
CC(C)C[C@@H](NC(=O)OCc1ccccc1)C(=O)O [N-α-CBZ-D-Leucine]	1.2	–
N[C@H](CCCCNC(=O)OCc1ccccc1)C(=O)O [N-ε-CBZ-D-Lysine]	7	–
O=C(N[C@H](Cc1ccccc1)C(=O)O)OCc1ccccc1 [N-α-CBZ-D-phenylalanine]	0	–
O=C(N[C@@H](Cc1ccc(O)cc1)C(=O)O)OCc1ccccc1 [N-α-CBZ-L-tyrosine]	100	–
O=C(N[C@H](Cc1ccc(O)cc1)C(=O)O)OCc1ccccc1 [N-α-CBZ-D-tyrosine]	1.58	–
NCCCC[C@H](NC(=O)OCc1ccccc1)C(=O)O [N-α-CBZ-L-Lysine, N-α-CBZ-L-lysine]	52	–
O-α-CBZ-L-tyrosine	100	–
CC(C)C[C@H](NC(=O)OCc1ccccc1)C(=O)O [N-α-CBZ-L-Leucine]	100	–
O=C(N[C@@H](Cc1ccccc1)C(=O)O)OCc1ccccc1 [CBZ-L-Phenylalanine, N-α-CBZ-L-phenylalanine]	100	% Conversion [1]: 100%; % Conversion [3]: 100%; deprotection of the substrate [4]: complete deprotection
O=C(O)[C@@H]1CCCN1C(=O)OCc1ccccc1 [N-α-CBZ-L-Proline]	100	–
O=C(O)[C@H]1CCCN1C(=O)OCc1ccccc1 [N-α-CBZ-D-Proline]	0	–
B1	–	specific activity ([3]; purified enzyme after S-200 gel filtration, CBZ-L-phenylalanine as substrate): 13.9 units/mg protein
